Results on one compound are retold here after patent publication US11691980B2, “Liphagal analog and multi-targeted kinase inhibitor containing liphagal or analog thereof” (TOHOKU UNIVERSITY, priority 2017, dated 2023).

The target in test [1] is T1, DYRK2 (Homo sapiens, UniProt Q92630).
T1 construct: purchased Carna Biosciences
Kind of test: mobility shift assay. The test is classed as biochemical.

The target of test [2] is T2, FGFR4(V550E) (Homo sapiens, UniProt P22455, V550E).
T2 construct: purchased Carna Biosciences
Kind of test: mobility shift assay. The test is classed as biochemical.

T2 sequence (P22455 22-802 V550E): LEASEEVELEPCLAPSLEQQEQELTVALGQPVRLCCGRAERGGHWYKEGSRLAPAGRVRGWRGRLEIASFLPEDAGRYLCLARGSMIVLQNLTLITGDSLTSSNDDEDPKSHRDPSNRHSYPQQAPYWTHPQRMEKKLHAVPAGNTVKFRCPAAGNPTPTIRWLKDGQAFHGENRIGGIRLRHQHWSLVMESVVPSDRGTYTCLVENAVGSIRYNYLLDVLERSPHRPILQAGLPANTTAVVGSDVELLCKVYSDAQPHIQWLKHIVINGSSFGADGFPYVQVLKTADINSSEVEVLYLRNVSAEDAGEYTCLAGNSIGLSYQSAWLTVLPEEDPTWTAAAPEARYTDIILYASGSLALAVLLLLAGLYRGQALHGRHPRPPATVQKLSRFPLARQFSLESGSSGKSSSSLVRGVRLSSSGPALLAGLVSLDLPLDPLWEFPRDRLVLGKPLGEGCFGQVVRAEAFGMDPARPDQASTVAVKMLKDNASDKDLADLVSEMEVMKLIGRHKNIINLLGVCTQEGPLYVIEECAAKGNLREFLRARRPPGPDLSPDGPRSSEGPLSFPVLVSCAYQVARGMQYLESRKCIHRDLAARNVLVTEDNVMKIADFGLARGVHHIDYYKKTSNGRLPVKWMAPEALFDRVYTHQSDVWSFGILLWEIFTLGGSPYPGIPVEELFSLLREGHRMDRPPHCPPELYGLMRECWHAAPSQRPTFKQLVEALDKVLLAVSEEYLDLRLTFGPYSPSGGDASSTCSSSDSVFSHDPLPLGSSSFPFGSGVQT
T1 sequence (Q92630 whole entry): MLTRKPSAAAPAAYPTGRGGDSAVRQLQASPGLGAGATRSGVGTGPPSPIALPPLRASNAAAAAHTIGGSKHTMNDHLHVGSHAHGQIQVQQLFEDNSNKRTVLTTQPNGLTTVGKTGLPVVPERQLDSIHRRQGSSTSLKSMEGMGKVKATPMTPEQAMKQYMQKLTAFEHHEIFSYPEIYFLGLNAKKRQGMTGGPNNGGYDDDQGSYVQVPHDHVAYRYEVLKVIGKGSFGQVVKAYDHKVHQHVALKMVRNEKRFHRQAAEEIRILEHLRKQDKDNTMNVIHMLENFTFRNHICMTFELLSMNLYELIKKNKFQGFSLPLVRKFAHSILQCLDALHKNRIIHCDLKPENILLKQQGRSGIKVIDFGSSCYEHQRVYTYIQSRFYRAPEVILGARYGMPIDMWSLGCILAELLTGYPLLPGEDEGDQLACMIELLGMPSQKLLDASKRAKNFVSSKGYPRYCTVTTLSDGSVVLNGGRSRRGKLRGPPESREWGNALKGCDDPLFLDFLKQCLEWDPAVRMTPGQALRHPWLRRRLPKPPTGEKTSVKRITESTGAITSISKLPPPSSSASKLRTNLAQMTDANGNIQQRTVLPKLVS

In the case of `C[C@@H]1CC[C@H]2C(C)(C)CCC[C@]2(C)c2c1oc1c(C=O)c(O)c(O)cc21` [LG-1, liphagal], the inhibition at 10 µM amounted to 18.9% in test [1] and 2.4% in test [2].

A word on the inhibition: it is the change of the read-out against control, counted positive when it falls.
